Assay results: patent US20250101062A1, “ANTIMICROBIAL PEPTIDES” (Board of Regents of the University of Nebraska, priority 2023, published 2025)
Read-outs that look alike come from different tables or passages of the source. Where no end group is shown, it is not given here.

Columns and labels:
S. aureus USA300 LAC = assay: microbe, parasite or virus in culture; format: cell-based, Staphylococcus aureus; conditions: for MIC: read-out: Antimicrobial activity (MIC)
Description: (§1) The following resistant bacterial clinical strains were used in this study: S. aureus USA300 LAC, S. epidermidis 1457, E. coli E423-17, P. aeruginosa E411-17, K. pneumoniae E406-17, and A. baumannii B28-16. While the S. aureus USA300 strain is methicillin-resistant, most of the Gram-negative bacteria contain extended-spectrum beta-lactamase and are resistant to beta-lactam antibiotics. Peptide activity against bacteria was tested using an established lab protocol (Mishra, et al. (2017) Acta Biomater., 49:316-328). In brief, a peptide concentration gradient with twofold dilution was made in the 96-well polystyrene microplate at 10 μL per well. Bacteria were grown to the exponential phase (i.e., optical density at 600 nm≈0.5), diluted to ˜10^5 CFU/mL in different percentages of MHB, TSB, or LB, and partitioned into the 96-well microplate at 90 μL per well. […] They were diluted with autoclaved distilled water to obtain different percentages. The microplates were incubated at 37° C. overnight and read on a ChroMate™ 4300 microplate reader at 600 nm (GMI, Ramsey, MN). The peptide concentration in the wells without bacterial growth is the MIC. As is the convention, MIC values were represented as ranges.
(§2) For pH effects on peptide activity, the pH of the medium was adjusted to a targeted pH for the autoclave and then remeasured at room temperature. For salt and serum effects on peptide activity, stock NaCl solution or human serum was added to the media.
(§3) Peptide activity against bacteria were tested using the CLSI standard procedure with minor modifications (Clinical and Laboratory Standards Institute (2018) Performance standards for antimicrobial susceptibility testing, 9th ed.; Mishra, et al. (2019) Proc. Natl. Acad. Sci., 116(27):13517-13522). In brief, a peptide concentration gradient with twofold dilution was made in the 96-well polystyrene microplate at 10 μL per well. Bacteria were grown to the exponential phase (i.e., optical density at 600 nm≈0.5), diluted to ˜10^5 CFU/mL in MHB, and partitioned into the 96-well microplate at 90 μL per well. The microplates were incubated at 37° C. overnight and read on a ChroMate® 4300 Microplate Reader at 600 nm (GMI, Ramsey, MN). The peptide concentration in the wells without bacterial growth is the minimal inhibitory concentration (MIC). As the convention, MIC values were represented as ranges.
(§4) For pH effects on peptide activity, the pH of the medium was adjusted to a targeted pH for autoclave and then remeasured at room temperature. For salt and serum effects on peptide activity, stock NaCl solution or human serum were added to the media.

E. coli E423-17 = format: cell-based, Escherichia coli
Description: as §1, §2, §3, §4

K. pneumoniae E406-17 = format: cell-based, Klebsiella pneumoniae
Description: as §1, §3

A. baumannii B28-16 = format: cell-based, Acinetobacter baumannii; conditions: B28-16
Description: as §1, §3

P. aeruginosa E411-17 = assay: microbe, parasite or virus in culture; format: cell-based, Pseudomonas aeruginosa; conditions: E411-17
Description: as §1, §2, §3, §4

E. coli = conditions: data from the antimicrobial peptide database; cited from earlier work

Substance: KRIVQRIKDFLR-NH2 (C-terminus assumed) [KR-12]
- Antimicrobial activity (MIC) (S. aureus USA300 LAC; MHB 12.5%): active
- Antimicrobial activity (MIC) (S. aureus USA300 LAC; MHB 100%): did not display any activity
- Antimicrobial activity (MIC) (S. aureus USA300 LAC; USA300): 4 to 8 µM
- MIC (S. aureus USA300 LAC; USA300): 4 µM
- Antimicrobial activity (MIC) (E. coli E423-17; MHB 100%): active

Substance: KRIWQRIK-NH2 [W539]
- Activity (MIC) S. aureus (S. aureus USA300 LAC; USA300): >32 µM
- Activity (MIC) E.coli (E. coli E423-17; E423-17): >32 µM
- Activity (MIC) K. pneumoniae (K. pneumoniae E406-17): >32 µM
- Activity (MIC) A. baumannii (A. baumannii B28-16): >32 µM
- Activity (MIC) P. aeruginosa (P. aeruginosa E411-17): >32 µM

Substance: KRWWQRWK-NH2 [W541]
- Activity (MIC) S. aureus (S. aureus USA300 LAC; USA300): >32 µM
- Activity (MIC) E.coli (E. coli E423-17; KR-8 series, Table 3): 8 µM
- Activity (MIC) K. pneumoniae (K. pneumoniae E406-17): >32 µM
- Activity (MIC) A. baumannii (A. baumannii B28-16): >32 µM
- Activity (MIC) P. aeruginosa (P. aeruginosa E411-17): >32 µM

Substance: KRWWQWWK-NH2 [W542]
- Activity (MIC) K. pneumoniae (K. pneumoniae E406-17): >32 µM
- Activity (MIC) P. aeruginosa (P. aeruginosa E411-17): 4 to 8 µM

Substance: KWKFGKKLERIGQNVFRAAEKVLPVATGYAQLPATLAGAKQG (listed as Panorpa sp.) [Pvul-cec]
- MIC against E. coli (E. coli): 8 µg/mL

Substance: LLGDFFRKSK-NH2 (C-terminus assumed) [LL-10]
- MIC (S. aureus USA300 LAC; USA300): >64 µM

Substance: LRNLVPRTES-NH2 (C-terminus assumed) [LR-10]
- MIC (S. aureus USA300 LAC; USA300): >64 µM
- Antimicrobial activity (MIC) (E. coli E423-17; E423-17): >64 µM

Substance: NGNLLGGLLRPVLGVVKGLTGGLGKK (Pleurodema thaul) [Thaulin-1]
- MIC against E. coli (E. coli): 62.5 µg/mL

Substance: RKSKEKIGK-NH2 (C-terminus assumed) [RK-9]
- MIC (S. aureus USA300 LAC; USA300): >64 µM
- Antimicrobial activity (MIC) (E. coli E423-17; E423-17): >64 µM

Substance: RWKFGKKLERMGKRIFKATEKGLPVATGVAALARG (Tunga penetrans) [Tpen-cec]
- MIC against E. coli (E. coli): 8 µg/mL

Substance: RWKIFKKIEKVGQNIRDGIVKAGPAVAVVGQAATI (listed as Bombyx mori) [CM4]
- MIC against E. coli (E. coli): 12 µM

Substance: RWKIFKRIEKVGRNVRDGVIKAGPAVAVLGQAKALGK (listed as Phyllodes eyndhovii) [Peyn-cec]
- MIC against E. coli (E. coli): 8 µg/mL

Substance: SWLSKTAKKLENSAKKRIAEGIAIAIQGGPR (listed as Anisakis sp.) [Anisaxin-3]
- MIC against E. coli (E. coli): 0.5 to 1.0 µM
